# Data published in patent EP0796243B1, “DIAMINOCYCLOBUTENE-3,4-DIONES” (AMERICAN HOME PRODUCTS CORPORATION, priority 1994, dated 1996).
# Tested on: Isolated Rat Bladder Strips
# Experiment: Inhibition of contractions in isolated rat bladder strips (KCl-enhanced contractile activity)
# Parameters: species or system Sprague-Dawley rats
# Settings: 0.5 h, concentration required to elicit 50% inhibition of pre-drug contractile activity, additional 15 mM KCl, 30 minute challenge per concentration, value ± spread as printed
# From the text: Sprague-Dawley rats (150-200 g) are rendered unconscious by CO2 asphyxiation and then euthanized by cervical dislocation. The bladder is removed into warm (37 deg.C) physiological salt solution (PSS) of the following composition (mM): NaCl, 118.4; KCl, 4.7; CaCl2, 2.5; […]; NaHCO3, 24.9; KH2PO4, 1.2; glucose, 11.1; EDTA, 0.023; gassed with […]; pH 7.4. The bladder is opened and then cut into strips 1-2 mm in width and 7-10 mm in length. The strips are subsequently suspended in a 10 mL tissue bath under an initial resting tension of 1.5 g. The strips are held in place by two surgical clips one of which is attached to a fixed hook while the other is attached to an isometric force transducer. […] The carbachol is then washed out and the tissue allowed to relax to its resting level of activity. Following a further 30 min period of recovery an additional 15 mM KCl are introduced into the tissue bath. This increase in KCI concentration results in a large increase in the amplitude of spontaneous contractions (and initiation of contractions in previously quiescent strips) superimposed upon a small increase in basal tone. Following stabilization of this enhanced level of contractile activity, incremental increases in the concentration of test compound or vehicle are introduced into the tissue bath. Contractile activity is measured for each compound or vehicle concentration during the last minute of a 30 minute challenge.
# The isometric force developed by the bladder strips is measured using a […] to elicit 50% inhibition of pre-drug contractile activity (IC50 concentration) is calculated from this concentration-response curve.
row,Compound,IC50
1,"CC(=O)N(c1ccc(C#N)cc1)c1c(NC2CC3CCC2C3)c(=O)c1=O (racemic) [Example 17, N-(endo)-[2-(Bicyclo[2,2,1]hept-2-ylamino)-3,4-dioxo-cyclobut-1-enyl]-N-(4-cyano-phenyl)-acetamide]",1840 ± 360 nM
2,"CCC(=O)N(c1ccc(C#N)cc1)c1c(NC(C)C(C)(C)C)c(=O)c1=O (stereo not drawn) [Example 1, N-(4-Cyano-phenyl)-N-[3,4-dioxo-2-(1,2,2-trimethyl-propylamino)-cyclobut-1-enyl]-propionamide]",500 nM
3,"CC(Nc1c(N(C(=O)c2ccccc2)c2ccc(C#N)cc2)c(=O)c1=O)C(C)(C)C (stereo not drawn) [Example 2, N-(4-Cyano-phenyl)-N-[3,4-dioxo-2-(1,2,2-trimethyl-propylamino)-cyclobut-1-enyl]-benzamide]",290 ± 40 nM
4,"CCCCCC(=O)N(c1ccc(C#N)cc1)c1c(NC(C)C(C)(C)C)c(=O)c1=O (stereo not drawn) [Example 5, Hexanoic acid (4-cyano-phenyl)-[3,4-dioxo-2-(1,2,2-trimethyl-propylamino)-cyclobut-1-enyl]-amide]",350 ± 100 nM
5,"CC(C)C(=O)N(c1ccc(C#N)cc1)c1c(NC(C)C(C)(C)C)c(=O)c1=O (stereo not drawn) [Example 6, N-(4-Cyano-phenyl)-N-[3,4-dioxo-2-(1,2,2-trimethyl-propylamino)-cyclobut-1-enyl]-isobutyramide]",570 ± 200 nM
6,"CC(Nc1c(N(C(=O)C=Cc2ccccc2)c2ccc(C#N)cc2)c(=O)c1=O)C(C)(C)C (stereo not drawn) [Example 7, N-(4-Cyano-phenyl)-N-[3,4-dioxo-2-(1,2,2-trimethyl-propylamino)cyclobut-1-enyl]-3-phenyl-acrylamide]",370 ± 80 nM
7,"CC(=O)N(c1ccc(C#N)cc1)c1c(NC(C)C(C)(C)C)c(=O)c1=O (stereo not drawn) [Example 9, N-(4-Cyano-phenyl)-N-[3,4-dioxo-2-(1,2,2-trimethyl-propylamino)-cyclobut-1-enyl]-acetamide]",230 ± 50 nM
8,"CC(=O)N(c1ccc(C#N)cc1)c1c(N[C@H](C)C(C)(C)C)c(=O)c1=O [Example 10, (R)-(-)-N-(4-Cyano-phenyl)-N-[3,4-dioxo-2-(1,2,2-trimethyl-propylamino)-cyclobut-1-enyl]-acetamide]",310 ± 50 nM
9,"CC(=O)N(c1ccc(C#N)cc1)c1c(NC(C)C)c(=O)c1=O [Example 11, N-(4-Cyano-phenyl)-N-[3,4-dioxo-2-isopropylamino-cyclobut-1-enyl]-acetamide]",9700 ± 4100 nM
10,"CC(=O)N(c1ccc(C#N)cc1)c1c(NC(C)C(C)C)c(=O)c1=O (stereo not drawn) [Example 13, N-(4-Cyano-phenyl)-N-[2-(1,2-dimethyl-propylamino)-3,4-dioxo-cyclobut-1-enyl]-acetamide]",200 ± 100 nM
11,"CC(=O)N(c1cccc(C#N)c1)c1c(NC(C)C(C)(C)C)c(=O)c1=O (stereo not drawn) [Example 14, N-(3-Cyano-phenyl)-N-[3,4-dioxo-2-(1,2,2-trimethyl-propylamino)-cyclobut-1-enyl]-acetamide]",3200 ± 920 nM
12,"CCCCNc1c(N(C(C)=O)c2ccc(C#N)cc2)c(=O)c1=O [Example 16, N-(2-Butylamino-3,4-dioxo-cyclobut-1-enyl)-N-(4-cyano-phenyl)-acetamide]",1240 ± 540 nM
13,"CC(=O)N(c1ccc(C#N)c(Cl)c1)c1c(N[C@H](C)C(C)(C)C)c(=O)c1=O [Example 33, (R)-(-)-N-(3-Chloro-4-cyano-phenyl)-N-[3,4-dioxo-2-(1,2,2-trimethyl-propylamino)-cyclobut-1-enyl]-acetamide]",190 ± 10 nM

# Now from value to compound:
row,IC50,Compound
1,10600 nM,"CC(=O)N(c1ccncc1)c1c(NC2CC3CCC2C3)c(=O)c1=O (racemic) [Example 21, (endo)-N-[2-(Bicyclo[2,2,1]hept-2-ylamino)-3,4-dioxo-cyclobut-1-enyl]-N-(pyridin-4-yl)-acetamide]"
2,7200 ± 1600 nM,"CC(=O)N(c1cccnc1)c1c(N[C@H](C)C(C)(C)C)c(=O)c1=O [Example 23, (R)-N-[3,4-Dioxo-2-(1,2,2-trimethyl-propylamino)-cyclobut-1-enyl]-N-(pyridin-3-yl)-acetamide]"
3,2500 ± 200 nM,"CC(=O)N(c1ccncc1)c1c(N[C@H](C)C(C)(C)C)c(=O)c1=O [Example 24, (R)-N-[3,4-Dioxo-2-(1,2,2-trimethyl-propylamino)-cyclobut-1-enyl]-N-(pyridin-4-yl)-acetamide]"
4,10800 ± 1600 nM,"CC(C)CC(=O)N(c1ccncc1)c1c(N[C@H](C)C(C)(C)C)c(=O)c1=O [Example 25, (R)-N-[3,4-Dioxo-2-(1,2,2-trimethyl-propylamino)-cyclobut-1-enyl]-3-methyl-N-(pyridin-4-yl)-butyramide]"
5,4900 ± 1200 nM,"CCCCC(=O)N(c1ccncc1)c1c(N[C@H](C)C(C)(C)C)c(=O)c1=O [Example 26, (R)-(-)-N-(3,4-Dioxo-2-(1,2,2-trimethyl-propylamino)-cyclobut-1-enyl]-N-(pyridin-4-yl)-pentylamide]"
6,170 ± 4 nM,"CCCC(=O)N(c1ccc(C#N)cc1CC)c1c(N[C@H](C)C(C)(C)C)c(=O)c1=O [Example 27, (R)-(-)-N-(4-Cyano-2-ethyl-phenyl)-N-[3,4-dioxo-2-(1,2,2-trimethyl-propylamino)-cyclobut-1-enyl]-butyramide]"
7,220 ± 200 nM,"CCC(=O)N(c1ccc(C#N)cc1CC)c1c(N[C@H](C)C(C)(C)C)c(=O)c1=O [Example 28, (R)-N-(4-Cyano-2-ethyl-phenyl)-N-[3,4-dioxo-2-(1,2,2-trimethyl-propylamino)-cyclobut-1-enyl]-propionamide]"
8,270 ± 20 nM,"C/C=C/C(=O)N(c1ccc(C#N)cc1CC)c1c(N[C@H](C)C(C)(C)C)c(=O)c1=O [Example 29, (R)-(-)-N-(4-Cyano-2-ethylphenyl)-N-[3,4-dioxo-2-(1,2,2-trimethyl-propylamino)-cyclobut-1-enyl]-crotonamide]"
9,350 ± 100 nM,"CCc1cc(C#N)ccc1N(C(C)=O)c1c(N[C@H](C)C(C)(C)C)c(=O)c1=O [Example 30, (R)-(-)-N-(4-Cyano-2-ethyl-phenyl)-N-[3,4-dioxo-2-(1,2,2-trimethyl-propylamino)-cyclobut-1-enyl]-acetamide]"
10,610 ± 200 nM,"CCCCC(=O)N(c1ccc(C#N)cc1CC)c1c(N[C@H](C)C(C)(C)C)c(=O)c1=O [Example 31, (R)-(-)-N-(4-Cyano-2-ethyl-phenyl)-N-[3,4-dioxo-2-(1,2,2-trimethyl-propylamino)-cyclobut-1-enyl]-pentanamide]"
11,630 ± 65 nM,"CCc1cc(C#N)ccc1N(C(=O)C1CCCCC1)c1c(N[C@H](C)C(C)(C)C)c(=O)c1=O [Example 32, (R)-(-)-N-(4-cyano-2-ethyl-phenyl)-N-[3,4-dioxo-2-(1,2,2-trimethyl-propylamino)-cyclobut-1-enyl]-cyclohexanecarboxamide]"
